The values below come from article PMC10304876 (Molecules, 2023).

Entries after “also recorded” stand apart in the source; their conditions may differ. Some results are limits rather than exact numbers.

For series [1], the system named is squirrel monkeys (Saimiri sciureus). The series can be described thus: Squirrel monkey ventilation (whole-body plethysmograph, air vs 5% CO2). To be noted: for respiratory depressant effects (ventilatory ratio: minute volumes in 5% CO2 vs room air): cumulative dosing, result in words. Format: in vivo. Here is the method: These experiments were approved under IACUC protocol #2015N000165.
Ventilation measures were assessed as described previously. Briefly, squirrel monkeys were acclimated to a customized acrylic chamber (10′′d × 10′′w × 10′′h) that served as a whole-body plethysmograph (EMKA Technologies, Montreal, PQ, Canada). Gas (either air or a 5% CO2 in air mixture) was introduced to and extracted from the chamber at a constant flow rate of 5 L/min. Experimental sessions consisted of 4–6 consecutive 30 min cycles, each comprising a 20 min exposure to air followed by a 10 min exposure to 5% CO2. Drug effects were determined using cumulative dosing procedures, and injections were administered following each exposure to 5% CO2. Respiratory rate and tidal volume (mL/breath) were recorded over 1 min periods and were multiplied to provide minute volumes. Data from the last three minutes of each exposure to air or CO2 were averaged and used for analysis of drug effects on ventilation.
(§1) All statistical analyses and graphic representations were completed with GraphPad Prism version 9.3.0 (GraphPad Software, San Diego, CA, USA) using log-transformed values of doses. Group means ± SEM tail withdrawal latencies (in sec) and minute volume ratios are plotted as a function of drug dose. Data were analyzed using one-way ANOVA with significance set at p < 0.05, followed by Dunnett’s multiple comparison test.

Series [2] shares this test system. Kind of series: Warm-water tail withdrawal in squirrel monkeys. Format: in vivo. The conditions noted are these: 52 °C water, cumulative dosing, n = 3 to 5. As for the experimental part: Male squirrel monkeys (Saimiri sciureus) were housed in a climate-controlled vivarium with a 12 h light/dark cycle (7 a.m.–7 p.m.) in the McLean Hospital Animal Care Facility (licensed by the U.S. Department of Agriculture and compliant with guidelines provided by the Committee on Care and Use of Laboratory Animals of the Institute of Laboratory Animals Resources, Commission on Life Sciences, National Research Council; 2011). These experiments were approved under IACUC protocol #2015N000165.
Tail withdrawal latencies were assessed as described previously. Briefly, monkeys were seated in customized Plexiglas chairs that allowed their tails to hang freely. Tail withdrawal latencies were measured by immersing the subject’s tail in water held at 35 °C or 52 °C (temperatures were presented in a randomized order during successive test components). After obtaining a baseline tail withdrawal latency, complete dose response curves were generated in each subject using standard cumulative dosing procedures. Briefly, every 15 min after an injection, tail withdrawal latencies at each temperature were redetermined and subjects were injected with the next dose, such that the total (cumulative) dose was increased by ½ log10 units in each successive cycle. This procedure was repeated until either (a) the tail withdrawal latency from 52 °C water reached the maximum allowable latency (10 s), or (b) tail withdrawal latency no longer increased with increases in dose of the test drug.
as §1

Series [3] addresses T1, human µ-opioid receptor β-arrestin2 (Homo sapiens, UniProt P35372).
T1 construct: EFC (enzyme fragment complementation) fragment; host or cells: PathHunter CHO-K1
Kind of series: cell-based. The conditions noted are these: for Emax: read-out: MOR β-Arrestin Recruitment %Emax ± SEM.

In series [4] the target is T2, human δ-opioid receptor (OPRD1) (Homo sapiens, UniProt P41143). The series can be described thus: Forskolin-induced cAMP accumulation assay, DOR agonist. The conditions noted are these: for Emax: read-out: DOR Agonist %Emax ± SEM, cAMP assay.
T2 sequence (P41143 whole entry): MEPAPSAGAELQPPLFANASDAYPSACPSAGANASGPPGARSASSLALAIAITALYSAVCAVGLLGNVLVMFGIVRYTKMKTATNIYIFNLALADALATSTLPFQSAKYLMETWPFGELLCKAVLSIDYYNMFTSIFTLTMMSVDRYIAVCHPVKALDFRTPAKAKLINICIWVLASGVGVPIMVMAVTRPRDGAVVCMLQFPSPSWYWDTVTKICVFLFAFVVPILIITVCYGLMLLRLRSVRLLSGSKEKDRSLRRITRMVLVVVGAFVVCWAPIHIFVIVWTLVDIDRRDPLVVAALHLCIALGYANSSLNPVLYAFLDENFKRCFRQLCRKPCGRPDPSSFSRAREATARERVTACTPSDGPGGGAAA
In series [5] the target is T2, human δ-opioid receptor (OPRD1). Kind of series: Forskolin-induced cAMP accumulation assay, DOR antagonist. To be noted: for DOR Antagonist %Imax ± SEM: Imax normalized to naltrexone.
The subject of series [6] is rodent. Set-up: method as in PMID 17625813. To be noted: rodent antinociceptive assays; cited from earlier work.
[7] abbreviates: normalized to the forskolin control.

T1 sequence (P35372 whole entry, the tested form may be a part): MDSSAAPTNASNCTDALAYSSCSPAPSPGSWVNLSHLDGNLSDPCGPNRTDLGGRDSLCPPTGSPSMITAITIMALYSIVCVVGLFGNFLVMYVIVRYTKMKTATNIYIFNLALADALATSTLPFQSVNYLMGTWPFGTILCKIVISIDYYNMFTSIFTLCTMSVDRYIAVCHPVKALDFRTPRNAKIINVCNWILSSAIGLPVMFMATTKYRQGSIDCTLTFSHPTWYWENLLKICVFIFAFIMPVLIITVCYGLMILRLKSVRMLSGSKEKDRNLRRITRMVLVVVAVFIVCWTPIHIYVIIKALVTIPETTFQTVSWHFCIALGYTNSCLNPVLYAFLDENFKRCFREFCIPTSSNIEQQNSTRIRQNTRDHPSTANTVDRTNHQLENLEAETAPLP

Take `OCC[C@H]1[C@@H]2CCC[C@@]1(c1cccc(O)c1)CCN2CCc1ccccc1` [Compound 21, 3-((1S,5R,9R)-9-(2-Hydroxyethyl)-2-phenethyl-2-azabicyclo[3.3.1]nonan-5-yl)phenol]: the “respiratory depressant effects (ventilatory ratio: minute volumes in 5% CO2 vs room air)” value in series [1] was “reduced the ability of 5% CO2 to stimulate increases in ventilation”. In addition, the “ventilatory ratio reached with increasing dose” value in series [1] (ratio of minute volumes in 5% CO2 and room air) is on record as “above 2”. In addition, in series [2], the “antinociceptive effects (tail withdrawal latency)” value (“antinociceptive effects” below) is “significantly increased tail withdrawal latency; also recorded: full antinociceptive effects in three of four subjects”. In addition, the EC50 in series [3] was over 50000 nM; in series [4] it was 13 ± 3 nM. In addition, the Emax is 0% in series [3] and 38% in series [4] (setting [7]). The “DOR Agonist %Emax ± SEM” value in series [4] (cAMP assay, normalized to the forskolin control) is 39 ± 3%.

Take `OCCC[C@H]1[C@@H]2CCC[C@@]1(c1cccc(O)c1)CCN2CCc1ccccc1` [Compound 36]: the “respiratory depressant effects (ventilatory ratio: minute volumes in 5% CO2 vs room air)” value in series [1] is listed as “limited respiratory depressant effects”. Further, the “antinociceptive effects” value in series [2] is “did not significantly increase tail withdrawal latency”. In addition, the EC50 in series [3] was over 50000 nM; in series [4], 102 ± 16 nM. The results for the Emax in series [3] and in series [4] (setting [7]) were 0% and 41%, respectively.

For the compound `OCCC[C@H]1[C@H]2CCC[C@]1(c1cccc(O)c1)CCN2CCc1ccccc1` [Compound 34, 3-((1R,5S,9R)-9-(3-Hydroxypropyl)-2-phenethyl-2-azabicyclo[3.3.1]nonan-5-yl)phenol], in series [3], the “Bias Factor” value was determined as 14.0; the midpoint of the response, the EC50, lay at 34 nM; the Emax was 3.1%. The compound further returned an EC50 in series [4] of over 10000 nM. Besides, the “DOR Agonist EC50 ± SEM (nM)” value in series [4] (inhibition of forskolin-induced cAMP accumulation, CHO-K1 cells) is given as “no DOR agonist activity”. The compound also yielded an IC50 in series [5] of 41 ± 5 nM. For the same compound, the “DOR Antagonist %Imax ± SEM” value in series [5] (cAMP assay) came out at 111 ± 4%. Moreover, the “DOR Antagonist IC50 ± SEM (nM)” value in series [5] (cAMP assay, versus EC50 of SNC80) is “weak DOR antagonist activity”.

With `COC[C@H]1[C@H]2CCC[C@]1(c1cccc(O)c1)CCN2CCc1ccccc1` [Compound 41, 3-((1R,5S,9R)-9-(Methoxymethyl)-2-phenethyl-2-azabicyclo[3.3.1]nonan-5-yl)phenol], the “Bias Factor” value in series [3] is on record as 6.4. In addition, the EC50 in series [3] is 29 nM; in series [4], 2.4 ± 1.6 nM. For the same compound, the Emax in series [3] was 2.8%; in series [4] (setting [7]), 20%. The compound also displayed an IC50 in series [5] of 54 ± 14 nM. The “DOR Antagonist %Imax ± SEM” value in series [5] (cAMP assay) is reported as 80 ± 8%.

On to `CN1CC[C@]23c4c5ccc(O)c4O[C@H]2[C@@H](O)C=C[C@H]3[C@H]1C5` [Morphine, reference compound], for which, in series [2], the “antinociceptive effects” value is “significantly increased tail withdrawal latency”.

Turning to `Oc1cccc([C@]23CCC[C@H]([C@H]2O)N(CCc2ccccc2)CC3)c1` [Compound 2], the “times more potent than morphine” value in series [6] was about 500 times.

Take `OC[C@H]1[C@H]2CCC[C@]1(c1cccc(O)c1)CCN2CCc1ccccc1` [Compound 11, 3-((1R,5S,9R)-9-(Hydroxymethyl)-2-phenethyl-2-azabicyclo[3.3.1]nonan-5-yl)phenol]: the “Bias Factor” value in series [3] amounted to 13.4. In addition, the EC50 in series [3] is 187 nM; in series [4] it was 8.5 ± 3.5 nM. Also, the figures for the Emax in series [3] and in series [4] (setting [7]) were 2.7% and 35%, respectively.

Turning to `OC[C@H]1[C@@H]2CCC[C@@]1(c1cccc(O)c1)CCN2CCc1ccccc1` [Compound 15, 3-((1S,5R,9R)-9-(Hydroxymethyl)-2-phenethyl-2-azabicyclo[3.3.1]nonan-5-yl)phenol], in series [1], the “respiratory depressant effects (ventilatory ratio: minute volumes in 5% CO2 vs room air)” value is on record as “limited respiratory depressant effects”. In addition, the “antinociceptive effects” value in series [2] is given as “did not significantly increase tail withdrawal latency”. The values for the EC50 in series [3] and in series [4] were over 50000 nM and 0.6 ± 0.3 nM, respectively. Besides, the Emax in series [3] was 0%; in series [4] (setting [7]), 17%. In addition, the IC50 in series [5] worked out at 336 ± 139 nM. Further, the “DOR Antagonist %Imax ± SEM” value in series [5] (cAMP assay) was found to be 109 ± 8%.
